Tests used:
[1] = Stability in human liver S9 fraction
[2] = Stability in human liver microsomes; details: microsomes
HepG2 cells = test: HepG2 cytotoxicity (ATP decrease); details: read-out: CYTOTOXICITY ATP decrease EC50; 4 h
[3] = Octanol/water partition coefficient (shake-flask); format: physicochemical; details: pH 8
CAR = biological target: T1, CAR (Homo sapiens, UniProt Q14994); test: CAR coactivator recruitment (Lanthascreen); format: biochemical; details: read-out: CAR Activation EC50
T1 construct: purchased Invitrogen
T1 sequence (Q14994 109-352 limits assumed): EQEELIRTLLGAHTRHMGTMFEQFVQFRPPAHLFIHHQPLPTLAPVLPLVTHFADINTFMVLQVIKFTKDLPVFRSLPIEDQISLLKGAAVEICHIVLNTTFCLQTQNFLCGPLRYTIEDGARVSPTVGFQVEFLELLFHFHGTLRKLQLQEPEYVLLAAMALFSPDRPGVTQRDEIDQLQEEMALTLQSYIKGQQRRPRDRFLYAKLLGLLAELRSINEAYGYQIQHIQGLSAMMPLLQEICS
Method: CAR: Coactivator Recruitment (Lanthascreen)
Lanthascreen assay (Invitrogen) was used for nulear receptor selectivity assay. The kit uses a terbium-labeled anti-GST antibody, a fluorescein-labeled coactivator peptide, and a NR ligand-binding domain that is tagged with glutathione-S-transferase (GST) in a homogenous mix-and-read assay format. […] Following 1 hour incubation in the dark, TR-FRET measurements were made in the Envision. […] The data was analyzed using GraphPad Prism using the sigmoidal curve equation with variable slope to obtain EC50 values.

LXRα = biological target: T2, LXRα (Homo sapiens, UniProt Q13133); test: LXR coactivator recruitment (alphascreen); format: biochemical
T2 sequence (Q13133 1-447): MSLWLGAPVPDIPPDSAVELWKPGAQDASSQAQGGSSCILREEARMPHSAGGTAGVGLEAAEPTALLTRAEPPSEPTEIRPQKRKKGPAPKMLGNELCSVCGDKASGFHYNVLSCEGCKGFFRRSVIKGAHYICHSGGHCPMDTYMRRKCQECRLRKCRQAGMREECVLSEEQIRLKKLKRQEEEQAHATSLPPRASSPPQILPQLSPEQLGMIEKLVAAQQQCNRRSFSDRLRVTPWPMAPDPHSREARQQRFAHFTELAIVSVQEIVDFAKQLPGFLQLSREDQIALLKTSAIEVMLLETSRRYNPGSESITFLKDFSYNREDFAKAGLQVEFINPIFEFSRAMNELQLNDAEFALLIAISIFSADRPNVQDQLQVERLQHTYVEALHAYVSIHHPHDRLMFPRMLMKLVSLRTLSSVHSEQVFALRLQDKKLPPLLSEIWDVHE

[4] = Critical micellar concentration by surface tension; format: physicochemical; details: […] NaCl water solution
Method: The critical micellar concentration (CMC) was determined by surface tension (ST) measurements using a maximum bubble-pressure method which give surface tension values […] by potential impurities like static methods are. The tensiometer was a […] Research Corp., Milwaukee, Wis.) equipped with two glass probes of 0.5 and 4.0 mm diameters connected to a source of nitrogen. […] The surface tension values were plotted against the logarithm of the bile salt concentration; the regression lines corresponding to the two parts of the curve (monomeric and micellar phases) were calculated using the method of least squares, and the intersection of the lines was taken as the CMC value. From the ST vs concentration curves the value of the surface tension at the CMC (equilibrium between monomers and multimers species) was also calculated giving information about the detergency power which is related to the size of the micelles with associate surface tension lowering capacity. The CMC was evaluated by surface tension measurements in non equilibrium conditions i.e. in conditions that impurities slightly affect the surface tension results (FIG. 10).

bovine serum albumin = bovine serum albumin (Bos taurus, UniProt P02769); test: Albumin binding by equilibrium dialysis; format: in vitro ADME; details: 100 μM BA in 5% bovine serum albumin-saline, pH 7.2
Method: The extent of albumin binding was evaluated by equilibrium dialysis at a fixed BA-albumin ratio. BA was dissolved at a concentration of 100 μM in 5% bovine serum albumin-saline solution (pH 7.2) and left to stand for 24 h at 25° C. Two milliliters of this solution was dialyzed in cellulose sacs having a molecular weight cut-off of 12-14,000 against 25 ml of saline solution. The system was equilibrated by mechanical gently shaking for 72 h at 25° C. BA concentrations of the dialyzed solution (corresponding to the free unbound fraction) and of the starting solution were determined with HPLC-ESI-MS/MS in the same conditions of the previous analysis.
The percent of albumin binding was calculate from the initial BA concentration and from the unbound concentration in the dialyzed fraction.

VDR = biological target: T3, VDR (Homo sapiens, UniProt P11473); test: VDR coactivator recruitment assay
T3 sequence (P11473 127-423 limits assumed): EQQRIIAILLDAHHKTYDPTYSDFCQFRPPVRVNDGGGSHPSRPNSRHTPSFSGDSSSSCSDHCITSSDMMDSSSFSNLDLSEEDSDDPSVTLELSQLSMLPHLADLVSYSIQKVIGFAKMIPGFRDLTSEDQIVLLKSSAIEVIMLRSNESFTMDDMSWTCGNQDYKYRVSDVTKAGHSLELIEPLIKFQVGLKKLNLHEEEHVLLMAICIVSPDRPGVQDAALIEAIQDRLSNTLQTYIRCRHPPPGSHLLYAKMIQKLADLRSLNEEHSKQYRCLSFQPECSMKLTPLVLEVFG

PPARδ = biological target: T4, PPARδ (Homo sapiens, UniProt Q03181); test: PPARδ coactivator recruitment assay
T4 sequence (Q03181 211-439 limits assumed): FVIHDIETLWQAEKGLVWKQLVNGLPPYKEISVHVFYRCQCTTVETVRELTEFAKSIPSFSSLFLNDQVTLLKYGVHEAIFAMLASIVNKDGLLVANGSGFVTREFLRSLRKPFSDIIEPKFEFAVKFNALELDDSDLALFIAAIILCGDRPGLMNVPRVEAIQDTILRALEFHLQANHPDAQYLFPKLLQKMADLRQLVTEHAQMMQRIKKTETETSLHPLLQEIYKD

Water solubility = details: 0.1 M HCl

Chain of bovine serum albumin (P02769 25-607): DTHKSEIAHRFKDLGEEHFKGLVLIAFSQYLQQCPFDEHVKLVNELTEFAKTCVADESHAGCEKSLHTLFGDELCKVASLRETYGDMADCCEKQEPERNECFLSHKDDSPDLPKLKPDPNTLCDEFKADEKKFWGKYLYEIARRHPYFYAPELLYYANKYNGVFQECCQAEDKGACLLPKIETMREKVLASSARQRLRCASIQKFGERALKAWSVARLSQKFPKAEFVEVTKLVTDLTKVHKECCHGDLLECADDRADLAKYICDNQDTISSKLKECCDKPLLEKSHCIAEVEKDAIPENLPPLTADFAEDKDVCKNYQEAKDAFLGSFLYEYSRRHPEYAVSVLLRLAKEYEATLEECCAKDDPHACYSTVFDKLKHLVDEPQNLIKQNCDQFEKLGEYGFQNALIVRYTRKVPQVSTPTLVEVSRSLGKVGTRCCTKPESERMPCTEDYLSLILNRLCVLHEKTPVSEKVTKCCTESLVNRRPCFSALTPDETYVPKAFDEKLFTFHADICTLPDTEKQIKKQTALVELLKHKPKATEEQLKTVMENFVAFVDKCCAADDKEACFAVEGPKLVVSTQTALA

SMILES	half-life [1] [min]	half-life [2] [min]	EC50 (HepG2 cells) [mM]	LogPA- (1-octanol-water partition coefficient, ionized species) [3]	EC50 (CAR) [µM]	LXRα Activation EC50 (LXRα)	CMC […] Na+ [4] [mM]	STCMC (surface tension at CMC) [4] [Dyne/cm]	Albumin Binding (bovine serum albumin) [%]	VDR Activation EC50 (VDR)	PPARδ Activation EC50 (PPARδ)	Ws (water solubility, protonated species) (Water solubility) [µM]
C[C@]12CC[C@H]3[C@@H](CCC4=CC(=O)CC[C@@]43C)[C@@H]1CC[C@@H]2O [Testosterone, reference compound]	39	8 to 20	–	–	–	–	–	–	–	–	–	–
C[C@H](CCC(=O)O)[C@H]1CC[C@H]2[C@@H]3[C@@H](O)C[C@@H]4C[C@H](O)CC[C@]4(C)[C@H]3CC[C@]12C [UDCA]	–	–	> 1	2.2	> 250	No activity	6.0	50.5	94	No activity	No activity	7.5

Source: patent US8114862B2, “TGR5 modulators and methods of use thereof” (Intercept Pharmaceuticals, Inc., priority 2008, dated 2012)
